According to patent US11174253B2, “Compound and pharmaceutical composition containing the same” (ALPHALA CO., LTD., priority 2017, dated 2021):

How the values were obtained:
Assay type in all cases: cell-based
[1] = tested on: hepatocellular carcinoma cell line Hep3B; test: Growth inhibition of Hep3B cells, 48 hr treatment, Hoechst 33342 nucleus count (GE InCell 2200); conditions: Homo sapiens
In short: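 Compound exposure lasted 48 hr at 37° C, 5% CO2. Surviving nuclei were counted after Hoechst 33342 staining, and survival was expressed as the treated/non-treated cell number ratio, including the ratio at 10 μM compound.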

[2] = tested on: Hep3B hepatocellular carcinoma cell line; test: MTS cell viability assay (NCI-60 methodology), GI50/LC50, Hep3B; conditions: Homo sapiens, 48 h, Hep3B cells, 2 days incubation with compound
Description: (§1) The number of treated cells was determined by GE InCell 2200 system, and treated cells were stained with Hoechst 33342 which can reveal the remained nucleus in culture plate. The proportion of survival cells then were calculated with the ratio of treated/non-treated cells. The growth inhibition/cytotoxic effect of selected compounds were evaluated by the following protocol of NCI-60 screening platform. The human tumor cell lines are plating on a 96 well plate in a fixed density 24 hr prior compound treatment. Compounds with multiple concentrations are then added into each well for further 48 hr incubation. Cell viability is assessed by MTS method and the potency of compound is represented by GI50 and LC50 calculated by MTS result.
(§2) The cell viability measurement is based on the NCI-60 screening methodology (Nat. Rev. Cancer 6, 813-823, 2006). Briefly, cells are inoculated into 96-well plates at the optimal plating density. After 24 h, one of the two plates for each cell line is processed to determine a time zero cell viability (Tz) by MTS assay (Promega). Compounds are added over a 2-fold serial dilution to provide a total five drug concentrations plus DMSO control. Plates are incubated for a further 2 days, then measured cell viability by MTS assay [control growth (C) and test growth in the presence of drug at the five concentration levels (Ti)]. Growth inhibition of 50% (GI50) is calculated from [(Ti−Tz)/(C−Tz)]×100=50, which is the drug concentration resulting in a 50% reduction of control cells during the drug incubation. The LC50 is calculated from [(Ti−Tz)/Tz]×100=−50, which is the drug concentration resulting in a 50% reduction at the end of the drug treatment as compared to that at the beginning.
(§3) Herein, Hep3B refers to hepatocellular carcinoma cell line, SW480 refers to colon adenocarcinoma cell line, and NCI-H460 refers to human lung cancer cell line.

[3] = tested on: SW480 colon adenocarcinoma cell line; test: MTS cell viability assay (NCI-60 methodology), GI50/LC50, SW480; conditions: Homo sapiens, 48 h, SW480 cells, 2 days incubation with compound
Description: as §1, §2, §3

[4] = tested on: NCI-H460 human lung cancer cell line; test: MTS cell viability assay (NCI-60 methodology), GI50/LC50, NCI-H460; conditions: 48 h, NCI-H460 cells, 2 days incubation with compound
Description: as §1, §2, §3

[5] = Table 6, ratio of number of tumor cells treated with 10 μM compound to non-treated cells
[6] = Table 1, ratio of number of tumor cells treated with 10 μM compound to non-treated cells
[7] = Table 5, ratio of number of tumor cells treated with 10 μM compound to non-treated cells

| SMILES | viability at 10 µM [1, 5] | GI50 [2] | LC50 [2] | GI50 [3] | LC50 (NCI-60 lethal concentration, 50% net cell loss vs time zero) [3] | GI50 [4] | LC50 (concentration giving 50% net cell loss versus time zero, NCI-60 definition) [4] | viability at 10 µM [1, 6] | viability at 10 µM [1, 7] | viability at 10 µM ([1]; Table 3, ratio of number of tumor cells treated with 10 μM compound to non-treated cells) |
| --- | --- | --- | --- | --- | --- | --- | --- | --- | --- | --- |
| CC(C)(C)c1ccc(-c2nc(NC(=O)c3ccc([N+](=O)[O-])s3)sc2-c2ccc(Cl)cc2)cc1 [Compound 6-59, N-(4-(4-(tert-butyl)phenyl)-5-(4-chlorophenyl)thiazol-2-yl)-5-nitrothiophene-2-carboxamide] | 27% | 600 nM | 640 nM | 750 nM | 1620 nM | 700 nM | 1280 nM | – | – | – |
| CCOc1ccc(-c2nnc(NC(=O)Cc3ccc4nc(N)sc4c3)s2)c(OCC)c1 [Compound 1-18, 2-(2-aminobenzo[d]thiazol-6-yl)-N-(5-(2,4-diethoxyphenyl)-1,3,4-thiadiazol-2-yl)acetamide] | – | 160 nM | 480 nM | 190 nM | 580 nM | 200 nM | 600 nM | 70% | – | – |
| CCCOc1ccc(-c2nc(NC(=O)c3ccc([N+](=O)[O-])s3)sc2Oc2ccc(Br)cc2)cc1 [Compound 5-27, N-(5-(4-bromophenoxy)-4-(4-propoxyphenyl)thiazol-2-yl)-5-nitrothiophene-2-carboxamide] | – | 820 nM | 1510 nM | 1230 nM | 4870 nM | 1960 nM | 4740 nM | – | 31% | – |
| CCOc1ccc(-c2nc(NC(=O)c3ccc([N+](=O)[O-])s3)sc2Oc2ccccc2)cc1 [Compound 5-6, N-(4-(4-ethoxyphenyl)-5-phenoxythiazol-2-yl)-5-nitrothiophene-2-carboxamide] | – | 1100 nM | 4350 nM | 2590 nM | 5520 nM | 1170 nM | 3990 nM | – | 42% | – |
| O=C(Nc1nc(-c2ccc(C(F)(F)F)cc2)c(Oc2ccccc2)s1)c1ccc([N+](=O)[O-])s1 [Compound 5-81, 5-nitro-N-(5-phenoxy-4-(4-(trifluoromethyl)phenyl)thiazol-2-yl)thiophene-2-carboxamide] | – | 980 nM | 4230 nM | 2470 nM | 8600 nM | 810 nM | 2110 nM | – | 30% | – |
| CCC(C)(C)c1ccc(-c2nc(NC(=O)c3ccc([N+](=O)[O-])s3)sc2-c2ccc(F)cc2)cc1 [Compound 6-40, N-(5-(4-fluorophenyl)-4-(4-(tert-pentyl)phenyl)thiazol-2-yl)-5-nitrothiophene-2-carboxamide] | 25% | 540 nM | 3030 nM | 920 nM | 1350 nM | 1880 nM | 3610 nM | – | – | – |
| CCOc1cc(OCC)c(-c2nnc(N(C)C(=O)Cc3ccc4nc(N)sc4c3)s2)cn1 [Compound 1-37, 2-(2-aminobenzo[d]thiazol-6-yl)-N-(5-(4,6-diethoxypyridin-3-yl)-1,3,4-thiadiazol-2-yl)-N-methylacetamide] | – | 840 nM | 1240 nM | 1260 nM | – | 1350 nM | – | 47% | – | – |
| CCOCOc1cc(OCC)ccc1-c1nnc(NC(=O)Cc2ccc3nc(N)sc3c2)s1 [Compound 1-26, 2-(2-aminobenzo[d]thiazol-6-yl)-N-(5-(4-ethoxy-2-(ethoxymethoxy)phenyl)-1,3,4-thiadiazol-2-yl)acetamide] | – | 160 nM | 490 nM | 210 nM | 630 nM | 200 nM | 590 nM | 59% | – | – |
| CC(C)(C)c1ccc(-c2nc(NC(=O)c3ccc([N+](=O)[O-])s3)sc2-c2cc(F)cc(F)c2)cc1 [Compound 6-38, N-(4-(4-(tert-butyl)phenyl)-5-(3,5-difluorophenyl)thiazol-2-yl)-5-nitrothiophene-2-carboxamide] | 30% | 630 nM | 1610 nM | 740 nM | 4060 nM | 700 nM | 1650 nM | – | – | – |
| CCCCc1ccc(-c2nc(NC(=O)c3ccc([N+](=O)[O-])s3)sc2Oc2ccccc2F)cc1 [Compound 5-80, N-(4-(4-butylphenyl)-5-(2-fluorophenoxy)thiazol-2-yl)-5-nitrothiophene-2-carboxamide] | – | 680 nM | 1280 nM | 1460 nM | 4170 nM | 840 nM | 1750 nM | – | 26% | – |
| Nc1nc2ccc(CC(=O)Nc3nc(-c4ccc(Br)cc4)c(-c4ccc(Br)cc4)s3)cc2s1 [Compound 3-10, 2-(2-aminobenzo[d]thiazol-6-yl)-N-(4,5-bis(4-bromophenyl)thiazol-2-yl)acetamide] | – | 510 nM | 1290 nM | 1210 nM | 7080 nM | 840 nM | 6620 nM | – | – | 52% |
| CCCOc1ccc(-c2nc(NC(=O)c3ccc([N+](=O)[O-])s3)sc2Oc2ccc(C#N)cc2)cc1 [Compound 5-39, N-(5-(4-cyanophenoxy)-4-(4-propoxyphenyl)thiazol-2-yl)-5-nitrothiophene-2-carboxamide] | – | 890 nM | 5530 nM | 1490 nM | 6540 nM | 230 nM | 1160 nM | – | 56% | – |
| CC(C)(C)c1ccc(-c2nc(NC(=O)c3ccc([N+](=O)[O-])s3)sc2-c2ccc(F)c(F)c2)cc1 [Compound 6-46, N-(4-(4-(tert-butyl)phenyl)-5-(3,4-difluorophenyl)thiazol-2-yl)-5-nitrothiophene-2-carboxamide] | 31% | 590 nM | 1100 nM | 680 nM | 1330 nM | 630 nM | 900 nM | – | – | – |
| CCCCOc1ccc(-c2nc(NC(=O)c3ccc([N+](=O)[O-])s3)sc2-c2ccc(F)cc2)cc1 [Compound 6-18, N-(4-(4-butoxyphenyl)-5-(4-fluorophenyl)thiazol-2-yl)-5-nitrothiophene-2-carboxamide] | 26% | 1380 nM | 2170 nM | 6490 nM | – | 2010 nM | 8260 nM | – | – | – |
| CCCCOc1ccc(-c2nc(NC(=O)c3ccc([N+](=O)[O-])s3)sc2Oc2ccccc2)cc1 [Compound 5-56, N-(4-(4-butoxyphenyl)-5-phenoxythiazol-2-yl)-5-nitrothiophene-2-carboxamide] | – | 550 nM | 2310 nM | 1540 nM | 9320 nM | 700 nM | 1550 nM | – | 40% | – |
| CCCCOc1ccc(Oc2sc(NC(=O)c3ccc([N+](=O)[O-])s3)nc2-c2ccc(F)cc2)cc1 [Compound 5-66, N-(5-(4-butoxyphenoxy)-4-(4-fluorophenyl)thiazol-2-yl)-5-nitrothiophene-2-carboxamide] | – | 520 nM | 760 nM | 950 nM | 2810 nM | 390 nM | 1130 nM | – | 43% | – |
| CC(C)(C)c1ccc(-c2nc(NC(=O)c3ccc([N+](=O)[O-])s3)sc2Oc2ccccc2C(F)(F)F)cc1 [Compound 5-75, N-(4-(4-(tert-butyl)phenyl)-5-(2-(trifluoromethyl)phenoxy)thiazol-2-yl)-5-nitrothiophene-2-carboxamide] | – | 800 nM | 1310 nM | 730 nM | 1670 nM | 670 nM | 1110 nM | – | 34% | – |
